Measurements reported in patent EP0449955B1, “SYNTHETIC HIV-LIKE PEPTIDES, THEIR COMPOSITIONS AND USES” (CLARITY TECHNOLOGIES INCORPORATED, priority 1988, dated 1996).
“Also recorded” adds a separate entry of the source.

How the values were obtained:
antibodies to HIV-2 = test: EIA of HIV-2 peptide-BSA conjugates with macaque sera; type: binding; settings: macaque sera containing or not containing antibodies to HIV-2, Figure 7
Protocol: The synthetic peptides of Figures 1-8 were reduced with 10mM DTT, or with immobilized DTT (Reductacryl, Calbiochem, San Diego, California, U.S.A., 10 mg Reductacryl per mg peptide) overnight at 4°C, pH8 in 10mM borate or other buffers depending upon peptide solubility, with gentle mixing. KLH was dissolved at a concentration of 10-30 mg/ml in 10 mM phosphate buffer pH 7.2., and BSA was dissolved at a concentration of 20-80 mg/ml for treatment with heterobifunctional linkers MBS (m-Maleimidobenzoyl-N-hydroxysuccinimide ester), SPDP [N-Succinimidyl 3-(2 pyridyldithio)propionate], or Sulfo-SMCC [Sulfo-Succinimidyl 4(N-maleimidomethyl)-cyclohexane-1-carboxylate]. The heterobifunctional linkers were added to the protein solutions in a molar excess of linker to BSA of 100, or of linker to KLH of 1000. MBS was dissolved in DMF at 10mg/ml, SPDP was dissolved in absolute ethanol at 10mg/ml and each of these was added dropwise with mixing into the protein solution, whereas the Sulfo-SMCC dry powder was dissolved into the protein solution. Each protein-linker mixture was reacted at room temperature for 15 minutes to 1 hour and then free linker was separated from BSA-linker or KLH-linker by gel chromatography with Sephadex G25 using 50mM phosphate, pH 6 for KLH-MBS, 10mM acetate, 100 mM Nacl, pH 4.6 for BSA-SPDP, or 100 mM phosphate, 1 mM EDTA, pH 6.5 for BSA-SMCC. The reduced peptides were separated from DTT by Sephadex G10 column chromatography when soluble DTT was used, or by centrifugation followed by filtration through a 0.22 micron filter when Reductacryl was used. Reduced peptides were combined with linker treated KLH or BSA in molar ratios of 100-1000 peptide/KLH-MBS, 1-50 peptide/BSA-SMCC, and 0.1-10 peptide/BSA-SPDP. Each reduced peptide was added to the linker-treated protein with mixing, overlayed with N₂, and then mixed gently at room temperature for one hour, and then overnight at 4°C. The SMCC-BSA conjugates were further treated with a 1 mM final concentration of mercaptoethylamine for 4 hours, and then dialyzed overnight against 100 volumes of buffer (20mM phosphate, 1 mM EDTA, 0.05% sodium azide, pH 6.5) at 4°C. All other conjugates were adjusted to a final concentration of sodium azide of 0.05%. Optimal molar ratios of peptide/protein for the conjugates were determined by solubility and antigenicity (as evaluated by EIA).
The free peptides or peptide-protein conjugates of Figures 1-13 were initially screened for immunoreactivity by coating each well of polystyrene microtiter EIA plates (Costar, Cambridge, Massachusetts, U.S.A.) with 0.2 ml amounts of concentrations of 5-50 micrograms/ml peptide in Tris buffer, 10 mM, pH 8.0, at 4°C overnight. […]

SIV/HIV-2 antibodies = test: EIA of HIV-2 gp32 peptide-protein conjugates against macaque serum pools; type: binding; settings: peptide conjugated via C-terminus to BSA (SMCC), coated at 10 micrograms peptide/ml; 1:101 dilution of SIV+ macaque serum pool; Figure 5
Protocol: The free peptides or peptide-protein conjugates of Figures 1-13 were initially screened for immunoreactivity by coating each well of polystyrene microtiter EIA plates (Costar, Cambridge, Massachusetts, U.S.A.) with 0.2 ml amounts of concentrations of 5-50 micrograms/ml peptide in Tris buffer, 10 mM, pH 8.0, at 4°C overnight. Peptides or peptide-protein conjugates showing immunoreactivity by EIA were then further diluted for coating to determine the minimal concentrations required that allowed maximal immunoreactivity with antibodies to HIV, and minimal nonspecific reactivity with normal sera. The EIA tests were performed as follows: The coating solution was removed from each well and the wells were blocked at 37°C for 30 minutes with a solution of 50 mM phosphate, 100 mM NaCl, pH 7.4, 1% BSA, 0.5% gelatin. The wells were then aspirated dry with a microtiter plate washer and washed 3 times with a solution of 50 mM phosphate, 100 mM NaCl, .05% Tween 20, (trademark) pH 7.4 (PBST). […] Reactions were stopped with 50 microliters of 4N H₂SO₄, and the color development was quantitated in a Multiscan plate reader at A₄₉₂. […] Most peptides and peptide conjugates were initially screened against a 1:101 dilution of pools of HIV positive or HIV negative sera, and the same serum pool was used to allow quantitative comparison of immunoreactivity of different free peptides or peptide-protein conjugates.
The peptides in Figures 1 and 5 were synthesized as described in Example 1 and conjugated to KLH or BSA as described in Example 2. These peptide-protein conjugates were coated to polystyrene microtiter plates all at a concentration 10 micrograms peptide/ml and evaluated for immunoreactivity as described in Example 3, using a 1:101 dilution of a pool of sera (HIV+/SIV+, respectively) containing antibodies to HIV-1 (Figure 1) or to HIV-2 (Figure 5), as well as pooled serum (HIV-/SIV-, respectively) containing no antibodies to HIV-1 or HIV-2. […]

antibodies to HIV-1 [1] = test: EIA of HIV-1 gp41 peptide-protein conjugates against serum pools; type: binding, human; settings: peptide conjugated via C-terminus to BSA (SMCC), coated at 10 micrograms peptide/ml; 1:101 dilution of HIV+ serum pool; Figure 1
Protocol: (§1) The free peptides or peptide-protein conjugates of Figures 1-13 were initially screened for immunoreactivity by coating each well of polystyrene microtiter EIA plates (Costar, Cambridge, Massachusetts, U.S.A.) with 0.2 ml amounts of concentrations of 5-50 micrograms/ml peptide in Tris buffer, 10 mM, pH 8.0, at 4°C overnight. Peptides or peptide-protein conjugates showing immunoreactivity by EIA were then further diluted for coating to determine the minimal concentrations required that allowed maximal immunoreactivity with antibodies to HIV, and minimal nonspecific reactivity with normal sera. The EIA tests were performed as follows: The coating solution was removed from each well and the wells were blocked at 37°C for 30 minutes with a solution of 50 mM phosphate, 100 mM NaCl, pH 7.4, 1% BSA, 0.5% gelatin. The wells were then aspirated dry with a microtiter plate washer and washed 3 times with a solution of 50 mM phosphate, 100 mM NaCl, .05% Tween 20, (trademark) pH 7.4 (PBST). A 1:101 dilution (in PBST with 1% BSA, 1% NRS) of the primate serum to be tested was then added as 0.2 ml to each washed well and the plates were incubated at 37°C for 30 minutes. The plates were then washed x 3 with PBST, and 0.2 ml amounts of a 1:2000 dilution of goat anti-human (GAH) peroxidase enzyme conjugate (Organon Teknika, Cappel, Melvern, Pennsylvania, U.S.A.) that recognized human IgG, IgA, and IgM were added to each well, and the plates were incubated for 30 minutes at 37°C. The plates were then washed x 3 with PBST and incubated with 0.2 ml/well substrate consisting of 0,1M citric acid pH 5.2, 0.1 mg/ml o-phenylene diamine, 0.01% H₂O₂, at room temperature in the dark for 10 minutes. Reactions were stopped with 50 microliters of 4N H₂SO₄, and the color development was quantitated in a Multiscan plate reader at A₄₉₂. In each series of experiments positive and negative controls were included, and all tests were done in duplicate or quadruplicate. Most peptides and peptide conjugates were initially screened against a 1:101 dilution of pools of HIV positive or HIV negative sera, and the same serum pool was used to allow quantitative comparison of immunoreactivity of different free peptides or peptide-protein conjugates.
The peptides in Figures 1 and 5 were synthesized as described in Example 1 and conjugated to KLH or BSA as described in Example 2. These peptide-protein conjugates were coated to polystyrene microtiter plates all at a concentration 10 micrograms peptide/ml and evaluated for immunoreactivity as described in Example 3, using a 1:101 dilution of a pool of sera (HIV+/SIV+, respectively) containing antibodies to HIV-1 (Figure 1) or to HIV-2 (Figure 5), as well as pooled serum (HIV-/SIV-, respectively) containing no antibodies to HIV-1 or HIV-2. […] Since sera from patients infected with HIV-2 are relatively unavailable in the United States, the immunoreactivity of HIV-2 synthetic peptides was assessed using serum from macaques infected with SIV, obtained from the University of Washington Primate Center, Seattle, Washington, U.S.A. The AA sequence of SIV is nearly identical to HIV-2 in the region of the peptides synthesized (see Myers et al., Human Retroviruses and AIDS, 1988. A compilation of nucleic acid and amino acid sequences. Los Alamos National Laboratory, Los Alamos, New Mexico, 87545, USA).

antibodies to HIV-1 [2] = test: EIA of peptide-carrier conjugates with individual human sera; type: binding; settings: BSA-SMCC conjugate; 98 sera containing antibodies to HIV-1; Figures 10B, 10C, 11
Protocol: as §1
Figure 10A illustrates the immunoreactivity of synthetic natural peptides 2S06 and 2S09 (Figure 1) when conjugated via their C-terminal GC spacer to KLH using the heterobifunctional linker MBS. […] However, the immunoreactivity of many of the positives was low (A₄₉₂ less than 1.0), and some of the negative samples had A₄₉₂ values slightly above 0.20, resulting in minimal discrimination between negatives and positives. This poor discrimination led to a search for an improved carrier protein and/or linker.
Figure 10B illustrates the reactivity of synthetic natural peptide IWGCSGKLICTTAVPGC (2S09) when conjugated through its C-terminus to BSA via the heterobifunctional linker SMCC. […] Improvement in assay performance as compared with results of Example 5A is noted with respect to negative samples having lower A₄₉₂ values, and most positive samples having higher A₄₉₂ values. […] Because of the possibility that some of the low responsiveness might be due to antigenic differences of genetic variants in the region of this epitope, as reported for HIV isolates from Zaire (Gnann et al., Science 237:1346-1349, 1987), the natural sequence variant peptide 5S67 (Figure 3) was synthesized, chemically linked to BSA with SMCC, and tested against the same sera, plus one additional negative serum sample (Figure 10C). […] This instigated a search for unnatural sequence variants of peptide 2S09 that would retain high immunoreactivity with most sera that contained antibodies to HIV-1, and yet retain low reactivity with sera devoid of antibodies to HIV. […]

antibodies to HIV-1 [3] = test: Rapid test with peptide-BSA-colloidal gold conjugate; type: binding, human
Protocol: A test device for performing rapid tests in less than 15 minutes was prepared as illustrated in Figures 14 and 15. Referring to Figures 14 and 15, the device comprises a plastic slide 10 (approximately 1 inch wide by 3/16 inch thick by 3 1/4 inches long) having a plurality of funnel-like wells 12, each having a capacity of approximately 200 microliters, an upper inflow tract rim 14 diameter of approximately 9 mm and a lower outflow tract 16 diameter of approximately 2 mm. The undersurface of the outflow tract 16 is designed so as to provide a smooth even contact with a membrane filter 18 placed next to it in the apparatus. The membrane filter separates reactants passing through it by size, retaining those particles above a predetermined size, such as above 0.22 µm, or above 0.45 µm in size (depending upon the specific filter chosen), though other filters placed into the apparatus might separate by binding or affinity (i.e. nitrocellulose, glass). […]
An 8 ml quantity of peptide IWGCSGKLICTTAVPGC (A280nm∼=0.50) conjugated via its C-terminus and SMCC to BSA was dialyzed overnight against 2L of DI water at 4°C. […] The A₅₈₀ of each well was determined and the lowest values, indicating best protection, were at pH6.1>pH6.0>> other pH's. Using larger amounts of gold sol at pH6.1 the minimal amount of protective protein was determined to be 70 microliters of the dialyzed peptide-BSA (A₂₈₀ = 0.45). […]

Sequence | discrimination of positive from negative samples (antibodies to HIV-2) | immunoreactivity with SIV/HIV-2 antibodies (SIV/HIV-2 antibodies) | immunoreactivity with HIV-1 antibodies (antibodies to HIV-1 [1]) | immunoreactivity with positive sera (antibodies to HIV-1 [2]) | result with positive serum samples (red-purple dots) (antibodies to HIV-1 [3]; 20 sera containing antibodies to HIV-1, diluted 1:100) | result with negative sera (antibodies to HIV-1 [3]; 20 sera without antibodies to HIV-1)
DQARLNSWGCAFRQVC [2S24] | most favorable performances | maximally immunoreactive; also recorded: Significant immunoreactivity; also recorded: best immunoreactivity |  |  |  | 
SWGCAFRQVCHTSVPGC [5S86] | most favorable performances |  |  |  |  | 
IWGCSGKLICTTAVPGC [2S09] |  |  | maximally immunoreactive; also recorded: higher reactivity; also recorded: Significant immunoreactivity; also recorded: slightly superior immunoreactivity | very low immunoreactivity | 19 of the 20 | only the white color of the underlying membrane remained
SWGCAFRQVCHTTVPGC [2S27] | most favorable performances | maximally immunoreactive; also recorded: Significant immunoreactivity; also recorded: best immunoreactivity |  |  |  | 
